Laboratory results as given in US7087035B2 (priority 1999, dated 2006).

Conditions: stretched and non-stretched groups; systems removed at 24 and 48 hours
Text: In one group of 12 hairless guinea pigs the skin of one flank was stretched manually bi-directionally ( ? and ? ) before application of a foam double adhesive ring having a thickness of 0.8 mm ( 1/32 inch) with a 2 cm^2 hole in the middle which would later contain the drug. The bi-directional stretching was estimated to achieve a skin tension of between 0.1 and 1 M Pa. The adhesive ring served to keep the skin under the drug compartment in the stretched configuration. Next, a 2 cm^2 stainless steel microprotrusion array having trapezoidal microprotrusions with microprotrusion lengths of 430 μm and a microprotrusion density of 241 microprotrusions/cm^2 was applied to the skin beneath the drug compartment using an approximately 2 kg/cm^2 normal manual pressure. The microprotrusion array was held for a few seconds and then removed.
A second group of 12 hairless guinea pigs were treated in the same way, except that the skin was not stretched. At 12, 24, and 48 hours after application four systems from each group were removed and residual drug was washed from the skin.

Compound: NCCCC[C@H](N[C@@H](CCc1ccccc1)C(=O)O)C(=O)N1CCC[C@H]1C(=O)O [lisinopril]
- drug flux after 12 hours: no drug flux in either group
